Like-named read-outs stand apart in the source and are kept apart here.
Tests used:
[1] = system: T-Rex 293 cell line SC3 cells lacking increased expression of androgen receptor protein; experiment: Cellular growth inhibition, T-Rex 293 SC3 cells lacking increased androgen receptor expression (no doxycycline), CellTiter-Glo; format: cell-based; conditions: T-Rex 293 SC3 cells lacking increased androgen receptor expression (not exposed to doxycycline), 72 hours, CellTiter-Glo; read-out: GI50
How it was run: (§1)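 SC3, a T-Rex 293 clone with doxycycline-inducible wild-type androgen receptor, was seeded in phenol red-free DMEM with 10% charcoal-dextran FBS, with or without 10 ng/mL doxycycline. Compound added at 24 h (0.5% DMSO) for 72 h at 37° C. CellTiter-Glo 2.0 luminescence; GI50 from four-parameter fit.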

T47D cells = experiment: Cellular growth inhibition assay for T47D cells, CellTiter-Glo; format: cell-based, human; conditions: 72 hours treatment, CellTiter-Glo 2.0
Experimental: T47D cells were purchased from American Type Cell Culture (ATCC Cat #HTB-133) and then seeded on poly-D-lysine coated, black clear-bottom 384-well plates at 3000/well in 25 μL Dulbecco's Modified Eagle Medium (DMEM) supplemented with 10% w/w Fetal bovine serum (FBS), 0.2 units/mL recombinant human insulin (Gibco Cat #12585014), and 1% w/w Pen-Strep. Pen-Strep is a commercially available mixture of penicillin G and streptomycin, which is used in mammalian cell culture media to prevent bacterial contamination. Dulbecco's Modified Eagle Medium (DMEM) supplemented with 10% w/w fetal bovine serum (FBS), 0.2 units/mL recombinant human insulin, and 1% w/w Pen-Strep is herein referred to as Treatment Medium. Following seeding of cells in the plates, the plates were spun at 300×g for 30 seconds, then equilibrated to room temperature for 30 minutes, and then deposited in a humidified tissue culture incubator maintained at 37° C. with 5% CO2.
At 24 hours after seeding of the cells, dilutions of test compound were prepared in DMSO and dissolved in Treatment Medium, to achieve a final DMSO concentration of 0.5% w/w, thereby providing the Test Compound Solution. A 25 μL aliquot of the Test Compound Solution was added to cells in the well plates. An equal volume of a solution containing DMSO and Treatment Medium was used as a negative control. Following treatment of cells with Test Compound Solution or said equal volume of a solution containing DMSO and Treatment Medium, the plates were spun at 300×g for 30 seconds, and then left in an incubator for 72 hours.
At the end of the treatment duration, cell viability was quantified with CellTiter-Glo 2.0 reagent (Promega Cat #G9243). For this purpose, plates were equilibrated to room temperature for 30 minutes, and then 25 μL of CellTiter-Glo 2.0 reagent was added to cells in the plate wells. Plates were then agitated on a shaker for two minutes at 500 rpm and subsequently incubated at room temperature for 10 minutes. Following incubation, the plates were spun at 3000×g for 30 seconds, then sealed with an optical adhesive cover, and luminescence readings were measured with an EnVision Plate Reader (Perkin Elmer).
Data was normalized using zero luminescence for baseline. A four-parameter non-linear regression curve fit was applied to dose-response data in GraphPad Prism data analysis software to determine the half-maximal growth inhibitory concentration (GI50) for each test compound.

[2] = system: T-Rex 293 cell line SC3 cells having increased expression of androgen receptor protein; experiment: Cellular growth inhibition, T-Rex 293 SC3 cells with increased androgen receptor expression (doxycycline), CellTiter-Glo; format: cell-based; conditions: T-Rex 293 SC3 cells with increased androgen receptor expression (exposed to 10 ng/mL doxycycline), 72 hours, CellTiter-Glo; read-out: GI50
How it was run: as §1

VCaP cells = experiment: Cellular growth inhibition assay for VCaP cells, CellTiter-Glo; format: cell-based, human; conditions: VCaP cells, 72 hours, CellTiter-Glo, read-out: GI50
How it was run: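 GI50 values come from four-parameter curve fits of luminescence data normalized to a zero baseline. Compound, in medium with 0.5% DMSO, was added one day after plating and left for 72 h before CellTiter-Glo 2.0 addition.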

SMILES: Cn1cc(-c2cc(C(C)(C)O)ccc2Oc2cc(F)c(CCC3CCN(c4ccc(C(=O)N[C@H]5CC[C@H](Oc6ccc(C#N)c(Cl)c6)CC5)nn4)CC3)cc2F)c2cc[nH]c2c1=O [I-116]
- GI50 [1]: 0.5 to 1.5 µM
- GI50 (T47D cells): < 0.5 µM
- GI50 [2]: < 0.5 µM
- GI50 (VCaP cells): < 0.5 µM

SMILES: Cn1cc(-c2cc(C(C)(C)O)ccc2Oc2ccc(CN3CC4(C3)CN(c3ccc(C(=O)N[C@H]5CC[C@H](Oc6ccc(C#N)c(Cl)c6)CC5)nn3)C4)cc2)c2cc[nH]c2c1=O [I-123]
- GI50 [1]: 0.5 to 1.5 µM
- GI50 (T47D cells; Homo sapiens): < 0.5 µM
- GI50 [2]: < 0.5 µM
- GI50 (VCaP cells; Homo sapiens): < 0.5 µM

SMILES: Cn1cc(-c2cc(C(C)(C)O)ccc2Oc2ccc(CCC3CC4(C3)CN(c3ccc(C(=O)N[C@H]5CC[C@H](Oc6ccc(C#N)c(Cl)c6)CC5)nn3)C4)cc2)c2cc[nH]c2c1=O [I-126]
- GI50 [1]: < 0.5 µM
- GI50 (T47D cells): < 0.5 µM
- GI50 [2]: < 0.5 µM
- GI50 (VCaP cells): < 0.5 µM

SMILES: Cn1cc(-c2cc(C(C)(C)O)ccc2Oc2ccc(CCCC3CN(c4ccc(C(=O)N[C@H]5CC[C@H](Oc6ccc(C#N)c(Cl)c6)CC5)nn4)C3)cc2)c2cc[nH]c2c1=O [I-127]
- GI50 [1]: 0.5 to 1.5 µM
- GI50 (T47D cells): < 0.5 µM
- GI50 [2]: < 0.5 µM
- GI50 (VCaP cells): < 0.5 µM

SMILES: Cn1cc(-c2cc(C(C)(C)O)ccc2Oc2ccc(CCCC3C4CN(c5ccc(C(=O)N[C@H]6CC[C@H](Oc7ccc(C#N)c(Cl)c7)CC6)nn5)CC34)cc2)c2cc[nH]c2c1=O (stereo partly shown) [I-128]
- GI50 [1]: < 0.5 µM
- GI50 (T47D cells): < 0.5 µM
- GI50 [2]: < 0.5 µM
- GI50 (VCaP cells): < 0.5 µM

SMILES: Cn1cc(-c2cc(C(C)(C)O)ccc2Oc2ccc(CCC3CN(c4ccc(C(=O)N[C@H]5CC[C@H](Oc6ccc(C#N)c(Cl)c6)CC5)nn4)C3)cc2)c2cc[nH]c2c1=O [I-129]
- GI50 [1]: < 0.5 µM
- GI50 (T47D cells): < 0.5 µM
- GI50 [2]: < 0.5 µM
- GI50 (VCaP cells): < 0.5 µM

SMILES: Cn1cc(-c2cc(C(C)(C)O)ccc2Oc2ccc(CC3CC4(CCN(c5ccc(C(=O)N[C@H]6CC[C@H](Oc7ccc(C#N)c(Cl)c7)CC6)nn5)CC4)C3)cc2)c2cc[nH]c2c1=O [I-130]
- GI50 [1]: < 0.5 µM
- GI50 (T47D cells; Homo sapiens): < 0.5 µM
- GI50 [2]: < 0.5 µM
- GI50 (VCaP cells; Homo sapiens): < 0.5 µM

SMILES: Cn1cc(-c2cc(C(C)(C)O)ccc2Oc2ccc(CC3CN(c4ccc(C(=O)N[C@H]5CC[C@H](Oc6ccc(C#N)c(Cl)c6)CC5)nn4)C3)cc2)c2cc[nH]c2c1=O [I-131]
- GI50 [1]: < 0.5 µM
- GI50 (T47D cells; Homo sapiens): < 0.5 µM
- GI50 [2]: < 0.5 µM
- GI50 (VCaP cells; Homo sapiens): < 0.5 µM

SMILES: Cn1cc(-c2cc(C(C)(C)O)ccc2Oc2ccc(CCOC3CCN(c4ccc(C(=O)N[C@H]5CC[C@H](Oc6ccc(C#N)c(Cl)c6)CC5)nn4)CC3)c(F)c2)c2cc[nH]c2c1=O [I-132]
- GI50 [1]: > 3 µM
- GI50 (T47D cells; Homo sapiens): < 0.5 µM
- GI50 [2]: < 0.5 µM
- GI50 (VCaP cells; Homo sapiens): < 0.5 µM

SMILES: Cn1cc(-c2cc(C(C)(C)O)ccc2Oc2ccc(CCCCC3CN(c4ccc(C(=O)N[C@H]5CC[C@H](Oc6ccc(C#N)c(Cl)c6)CC5)nn4)C3)cc2)c2cc[nH]c2c1=O [I-133]
- GI50 [1]: 0.5 to 1.5 µM
- GI50 (T47D cells): < 0.5 µM
- GI50 [2]: < 0.5 µM
- GI50 (VCaP cells): < 0.5 µM

SMILES: Cn1cc(-c2cc(C(C)(C)O)ccc2Oc2ccc(CCC3C4CN(c5ccc(C(=O)N[C@H]6CC[C@H](Oc7ccc(C#N)c(Cl)c7)CC6)nn5)CC34)cc2)c2cc[nH]c2c1=O (stereo partly shown) [I-134]
- GI50 [1]: > 3 µM
- GI50 (T47D cells): < 0.5 µM
- GI50 [2]: < 0.5 µM
- GI50 (VCaP cells): < 0.5 µM

SMILES: Cn1cc(-c2cc(C(C)(C)O)ccc2Oc2ccc(CCCC3CCN(c4ccc(C(=O)N[C@H]5CC[C@H](Oc6ccc(C#N)c(Cl)c6)CC5)nn4)C3)cc2)c2cc[nH]c2c1=O (stereo partly shown) [I-135]
- GI50 [1]: < 0.5 µM
- GI50 (T47D cells; Homo sapiens): < 0.5 µM
- GI50 [2]: < 0.5 µM
- GI50 (VCaP cells; Homo sapiens): < 0.5 µM

SMILES: Cn1cc(-c2cc(C(C)(C)O)ccc2Oc2ccc(C3CC(N4CCN(c5ccc(C(=O)N[C@H]6CC[C@H](Oc7ccc(C#N)c(Cl)c7)CC6)nn5)CC4)C3)cc2)c2cc[nH]c2c1=O (stereo partly shown) [I-136]
- GI50 [1]: < 0.5 µM
- GI50 (T47D cells): < 0.5 µM
- GI50 [2]: < 0.5 µM
- GI50 (VCaP cells): < 0.5 µM
